Test results taken from ChEMBL document CHEMBL6096715, “Novel TYK2 Inhibitors for Treating Autoimmune and Inflammatory Diseases” (ACS Med Chem Lett, 2025).

Biological target: Non-receptor tyrosine-protein kinase TYK2 (Homo sapiens, UniProt P29597)
Sequence (P29597 whole entry): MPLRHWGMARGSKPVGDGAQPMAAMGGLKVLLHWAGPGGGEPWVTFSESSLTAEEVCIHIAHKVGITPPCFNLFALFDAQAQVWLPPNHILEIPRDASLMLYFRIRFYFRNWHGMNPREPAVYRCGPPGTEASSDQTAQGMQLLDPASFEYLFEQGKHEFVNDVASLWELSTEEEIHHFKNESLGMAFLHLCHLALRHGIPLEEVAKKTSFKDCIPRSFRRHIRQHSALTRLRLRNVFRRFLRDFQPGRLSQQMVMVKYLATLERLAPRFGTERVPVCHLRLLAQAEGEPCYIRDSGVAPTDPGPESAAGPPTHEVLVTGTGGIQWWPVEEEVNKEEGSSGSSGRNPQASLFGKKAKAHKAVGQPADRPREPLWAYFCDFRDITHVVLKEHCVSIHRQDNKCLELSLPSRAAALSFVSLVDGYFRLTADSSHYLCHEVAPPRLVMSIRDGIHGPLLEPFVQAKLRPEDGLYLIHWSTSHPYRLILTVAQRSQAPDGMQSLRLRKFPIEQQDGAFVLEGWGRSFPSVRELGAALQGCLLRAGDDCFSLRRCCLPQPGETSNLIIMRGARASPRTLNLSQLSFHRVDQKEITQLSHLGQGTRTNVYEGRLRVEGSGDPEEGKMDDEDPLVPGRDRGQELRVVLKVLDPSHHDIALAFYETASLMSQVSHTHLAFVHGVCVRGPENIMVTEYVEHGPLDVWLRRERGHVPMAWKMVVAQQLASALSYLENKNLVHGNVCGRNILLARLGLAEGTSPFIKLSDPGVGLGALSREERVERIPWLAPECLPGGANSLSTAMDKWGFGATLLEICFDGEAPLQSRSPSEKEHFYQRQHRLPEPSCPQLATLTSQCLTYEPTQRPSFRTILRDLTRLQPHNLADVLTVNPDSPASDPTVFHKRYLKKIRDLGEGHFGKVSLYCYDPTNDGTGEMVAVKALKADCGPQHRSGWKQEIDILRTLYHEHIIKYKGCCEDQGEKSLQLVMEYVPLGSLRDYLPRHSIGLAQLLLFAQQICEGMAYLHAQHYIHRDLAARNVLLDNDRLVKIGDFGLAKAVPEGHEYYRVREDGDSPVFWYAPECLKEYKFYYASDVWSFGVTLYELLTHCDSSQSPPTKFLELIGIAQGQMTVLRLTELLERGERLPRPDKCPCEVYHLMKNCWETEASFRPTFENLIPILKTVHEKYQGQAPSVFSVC

Compound `Cn1cc(-c2cc3c(N4C[C@H]5CC[C@@H](C4)N5[C@H]4C[C@@H](C#N)C4(C)C)ccnn3c2)cn1` has an IC50 of 2.33 nM.
